We go through eleven compounds from patent US20240269139A1, “COMPOUNDS FOR TARGETED PROTEIN DEGRADATION OF KINASES” (DANA-FARBER CANCER INSTITUTE, INC., priority 2020, published 2024).

Read-outs that look alike come from different tables or passages of the source.

Format in all cases: cell-based
Test [1] addresses protein kinases (human kinome) (Homo sapiens, UniProt P11802).
For test [2], the target named is protein kinases (human kinome) (Homo sapiens, UniProt P30291). The conditions noted are these: for logFC of WEE1: WEE1 P30291-1.
The target in test [3] is T1, protein kinases (human kinome) (Homo sapiens, UniProt O14976).
T1 sequence (O14976 1-1311): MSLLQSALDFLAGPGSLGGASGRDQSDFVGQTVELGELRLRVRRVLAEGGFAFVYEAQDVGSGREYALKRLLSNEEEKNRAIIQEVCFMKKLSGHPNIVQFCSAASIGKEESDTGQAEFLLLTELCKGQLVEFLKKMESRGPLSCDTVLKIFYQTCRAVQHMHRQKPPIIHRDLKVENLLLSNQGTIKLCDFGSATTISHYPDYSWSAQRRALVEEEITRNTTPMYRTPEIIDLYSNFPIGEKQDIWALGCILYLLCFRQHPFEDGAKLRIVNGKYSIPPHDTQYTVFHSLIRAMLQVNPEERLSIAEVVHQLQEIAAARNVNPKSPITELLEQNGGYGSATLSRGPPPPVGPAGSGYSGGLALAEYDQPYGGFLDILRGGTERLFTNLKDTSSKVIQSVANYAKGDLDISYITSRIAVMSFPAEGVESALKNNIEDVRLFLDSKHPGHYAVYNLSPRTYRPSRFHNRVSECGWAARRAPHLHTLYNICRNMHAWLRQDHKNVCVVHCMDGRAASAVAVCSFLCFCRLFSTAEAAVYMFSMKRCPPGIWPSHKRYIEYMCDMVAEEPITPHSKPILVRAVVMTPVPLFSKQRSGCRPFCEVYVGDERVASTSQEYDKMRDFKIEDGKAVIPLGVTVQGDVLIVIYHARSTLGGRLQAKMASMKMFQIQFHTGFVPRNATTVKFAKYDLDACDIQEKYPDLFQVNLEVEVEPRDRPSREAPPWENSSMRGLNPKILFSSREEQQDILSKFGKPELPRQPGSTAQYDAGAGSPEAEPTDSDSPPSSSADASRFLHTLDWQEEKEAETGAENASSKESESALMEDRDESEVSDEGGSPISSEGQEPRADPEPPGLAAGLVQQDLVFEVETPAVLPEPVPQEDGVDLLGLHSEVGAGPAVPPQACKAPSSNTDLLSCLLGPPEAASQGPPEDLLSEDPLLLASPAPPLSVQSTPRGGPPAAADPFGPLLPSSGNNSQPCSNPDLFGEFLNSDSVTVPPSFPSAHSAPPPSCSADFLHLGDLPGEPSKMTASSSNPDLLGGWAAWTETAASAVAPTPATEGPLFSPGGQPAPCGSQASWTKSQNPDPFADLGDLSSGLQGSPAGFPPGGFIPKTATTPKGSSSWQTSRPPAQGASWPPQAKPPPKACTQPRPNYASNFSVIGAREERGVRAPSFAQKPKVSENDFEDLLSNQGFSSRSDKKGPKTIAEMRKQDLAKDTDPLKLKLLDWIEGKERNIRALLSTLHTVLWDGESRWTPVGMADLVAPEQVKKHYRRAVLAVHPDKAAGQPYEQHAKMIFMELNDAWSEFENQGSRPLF

The target of test [4] is protein kinases (human kinome) (Homo sapiens, UniProt Q2M2I8). Particulars: experiment wp195.
Test [5] concerns the target protein kinases (human kinome) (Homo sapiens, UniProt P16591). Particulars: for logFC of FER (P16591-1): down; for logFC of FER: FER P16591-1.
Test [6] has as its target protein kinases (human kinome) (Homo sapiens, UniProt P51451). The conditions noted are these: for logFC BLK: BLK (P51451), direction down, experiment wp168; for logFC of BLK (P51451): down.
Where [7] appears, read: GAK (O14976), experiment wp195, down.
Setting [8] is: GAK, accession O14976, experiment wp195, direction of change down.
Where [9] appears, read: AAK1, accession Q2M218-1, direction of change down.
[10] abbreviates: GAK (O14976), experiment wp168, down.
[11] abbreviates: experiment wp076, degrader vs DMSO.

protein kinases (human kinome) (Homo sapiens, UniProt P16591), sequence (P16591 whole entry): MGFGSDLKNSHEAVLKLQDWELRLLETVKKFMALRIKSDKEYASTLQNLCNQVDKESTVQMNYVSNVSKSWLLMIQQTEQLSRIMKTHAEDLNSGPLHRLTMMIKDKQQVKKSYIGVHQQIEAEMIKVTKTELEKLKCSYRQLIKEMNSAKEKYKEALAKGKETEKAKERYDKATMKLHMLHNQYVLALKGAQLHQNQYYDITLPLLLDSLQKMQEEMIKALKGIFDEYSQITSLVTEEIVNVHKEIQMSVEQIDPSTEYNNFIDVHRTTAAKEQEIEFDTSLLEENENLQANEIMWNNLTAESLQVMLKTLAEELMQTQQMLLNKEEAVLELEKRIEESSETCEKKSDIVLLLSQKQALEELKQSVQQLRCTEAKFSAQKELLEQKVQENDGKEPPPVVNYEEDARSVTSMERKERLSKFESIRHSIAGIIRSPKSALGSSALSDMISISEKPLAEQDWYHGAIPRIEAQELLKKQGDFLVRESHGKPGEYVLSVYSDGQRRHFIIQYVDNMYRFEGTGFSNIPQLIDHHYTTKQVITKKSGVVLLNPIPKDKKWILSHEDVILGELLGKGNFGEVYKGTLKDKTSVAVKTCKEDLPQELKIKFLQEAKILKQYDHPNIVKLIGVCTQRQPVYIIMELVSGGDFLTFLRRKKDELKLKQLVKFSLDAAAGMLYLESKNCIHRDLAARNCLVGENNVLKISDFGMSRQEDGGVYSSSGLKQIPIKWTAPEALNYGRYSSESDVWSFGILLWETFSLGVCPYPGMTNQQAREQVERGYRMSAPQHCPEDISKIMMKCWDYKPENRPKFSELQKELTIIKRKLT
protein kinases (human kinome) (Homo sapiens, UniProt Q2M2I8), sequence (Q2M2I8 whole entry): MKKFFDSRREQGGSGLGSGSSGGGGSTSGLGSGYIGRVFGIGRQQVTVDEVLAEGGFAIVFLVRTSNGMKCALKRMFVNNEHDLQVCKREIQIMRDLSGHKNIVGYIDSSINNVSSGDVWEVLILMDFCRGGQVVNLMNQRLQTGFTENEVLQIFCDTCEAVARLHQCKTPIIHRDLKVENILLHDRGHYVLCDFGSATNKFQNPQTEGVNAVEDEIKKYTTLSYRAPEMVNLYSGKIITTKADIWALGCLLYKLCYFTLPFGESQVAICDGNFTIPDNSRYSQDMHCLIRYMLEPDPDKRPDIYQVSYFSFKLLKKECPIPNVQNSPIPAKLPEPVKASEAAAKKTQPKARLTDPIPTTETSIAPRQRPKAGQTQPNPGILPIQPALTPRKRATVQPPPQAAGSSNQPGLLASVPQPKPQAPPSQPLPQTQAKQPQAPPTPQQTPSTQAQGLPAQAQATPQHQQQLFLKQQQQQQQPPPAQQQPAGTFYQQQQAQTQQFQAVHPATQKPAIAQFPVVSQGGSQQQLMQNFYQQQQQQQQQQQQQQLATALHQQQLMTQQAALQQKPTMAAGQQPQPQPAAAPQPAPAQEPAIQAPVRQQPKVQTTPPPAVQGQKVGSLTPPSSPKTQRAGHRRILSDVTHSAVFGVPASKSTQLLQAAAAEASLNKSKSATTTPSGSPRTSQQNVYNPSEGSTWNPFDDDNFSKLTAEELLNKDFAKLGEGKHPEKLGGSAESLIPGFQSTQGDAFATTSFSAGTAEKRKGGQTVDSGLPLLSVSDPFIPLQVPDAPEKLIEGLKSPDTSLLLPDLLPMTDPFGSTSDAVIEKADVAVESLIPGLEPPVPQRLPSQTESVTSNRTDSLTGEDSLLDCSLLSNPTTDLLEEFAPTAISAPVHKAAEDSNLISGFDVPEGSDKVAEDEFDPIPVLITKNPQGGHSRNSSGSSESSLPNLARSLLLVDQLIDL
protein kinases (human kinome) (Homo sapiens, UniProt P11802), sequence (P11802 whole entry): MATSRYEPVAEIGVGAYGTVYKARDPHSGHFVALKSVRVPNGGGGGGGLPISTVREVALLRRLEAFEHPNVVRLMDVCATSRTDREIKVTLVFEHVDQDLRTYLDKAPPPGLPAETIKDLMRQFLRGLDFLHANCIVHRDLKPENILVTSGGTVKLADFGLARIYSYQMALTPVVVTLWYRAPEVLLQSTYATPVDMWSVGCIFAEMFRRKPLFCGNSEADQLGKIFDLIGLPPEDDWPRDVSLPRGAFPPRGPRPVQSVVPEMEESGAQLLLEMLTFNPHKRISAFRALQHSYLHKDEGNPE
protein kinases (human kinome) (Homo sapiens, UniProt P30291), sequence (P30291 whole entry): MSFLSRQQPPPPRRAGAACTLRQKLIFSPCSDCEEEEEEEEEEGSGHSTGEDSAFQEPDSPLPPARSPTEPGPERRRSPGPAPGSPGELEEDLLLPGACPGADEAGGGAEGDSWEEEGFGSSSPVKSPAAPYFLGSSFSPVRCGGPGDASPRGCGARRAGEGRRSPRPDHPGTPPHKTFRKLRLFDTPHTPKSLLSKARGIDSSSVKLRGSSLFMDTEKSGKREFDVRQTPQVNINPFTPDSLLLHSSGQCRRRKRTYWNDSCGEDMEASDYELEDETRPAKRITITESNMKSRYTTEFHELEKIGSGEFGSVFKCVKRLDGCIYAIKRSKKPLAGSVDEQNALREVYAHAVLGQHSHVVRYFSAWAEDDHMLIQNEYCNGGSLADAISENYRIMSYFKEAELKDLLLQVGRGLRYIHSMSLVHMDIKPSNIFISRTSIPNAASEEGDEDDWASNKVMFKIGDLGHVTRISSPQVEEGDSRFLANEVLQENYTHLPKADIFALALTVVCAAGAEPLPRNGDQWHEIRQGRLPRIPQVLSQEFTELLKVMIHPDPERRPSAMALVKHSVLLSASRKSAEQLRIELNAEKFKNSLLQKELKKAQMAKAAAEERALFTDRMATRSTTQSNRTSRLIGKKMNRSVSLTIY
protein kinases (human kinome) (Homo sapiens, UniProt P51451), sequence (P51451 whole entry): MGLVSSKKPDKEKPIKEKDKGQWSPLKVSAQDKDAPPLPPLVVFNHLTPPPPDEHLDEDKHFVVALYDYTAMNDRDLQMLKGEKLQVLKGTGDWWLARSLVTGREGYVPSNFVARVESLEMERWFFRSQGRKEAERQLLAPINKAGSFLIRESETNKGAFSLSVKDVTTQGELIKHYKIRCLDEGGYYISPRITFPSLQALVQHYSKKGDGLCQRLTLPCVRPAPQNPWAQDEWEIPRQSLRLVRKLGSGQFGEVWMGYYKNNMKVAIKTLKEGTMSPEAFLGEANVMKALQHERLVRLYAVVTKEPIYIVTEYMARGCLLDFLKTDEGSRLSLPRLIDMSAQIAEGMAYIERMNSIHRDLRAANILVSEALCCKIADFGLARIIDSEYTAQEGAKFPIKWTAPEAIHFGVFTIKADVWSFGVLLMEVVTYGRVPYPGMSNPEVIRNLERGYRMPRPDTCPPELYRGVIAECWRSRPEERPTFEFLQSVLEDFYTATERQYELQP

Take `CC(=O)c1c(C)c2cnc(Nc3ccc(N4CCN(CCOCCOCCOCCNC(=O)COc5cccc6c5C(=O)N(C5CCC(=O)NC5=O)C6=O)CC4)cn3)nc2n(C2CCCC2)c1=O` (stereo not shown) [BSJ.03.123]: the “logFC CDK4 (P11802)” value in test [1] (experiment wp084) was −0.9496. Besides, in test [2] (experiment wp084), the “logFC of WEE1” value was −0.3883 and the “logFC WEE1 (P30291-1)” value was −0.3883.

As to `CN(C)C(=O)c1cc2cnc(Nc3ccc(N4CCN(CCCCNC(=O)COc5cccc6c5C(=O)N(C5CCC(=O)NC5=O)C6=O)CC4)cn3)nc2n1C1CCCC1` (stereo not shown) [BSJ.04.132], in test [1] (experiment wp084), the “logFC CDK4 (P11802)” value is on record as −0.9046.

As for `Cc1ncsc1-c1ccc([C@H](C)NC(=O)[C@@H]2C[C@@H](O)CN2C(=O)[C@@H](NC(=O)CCCCCN2CCc3cc(Nc4ncc(C5CC5)c(NCCCNC(=O)C5CCC5)n4)ccc3C2)C(C)(C)C)cc1` [BSJ.05.026], the “logFC GAK” value is on record as −0.5819 in test [3] (setting [7]) and −0.6819 in test [3] (setting [8]). Besides, in test [2] (Experiment wp195), the “logFC WEE1 (P30291-1)” value is listed as −0.8876. In test [2] (experiment wp196), the “logFC of WEE1” value is given as −0.8876. In addition, the “logFC AAK1” value is listed as −3.073 in test [4] (AAK1 (Q2M218-1), down) and −3.073 in test [4] (setting [9]).

Consider `Cc1ccc(NC(=O)c2cccc(C(F)(F)F)c2)cc1N1Cc2cnc(Nc3ccc(N4CCN(CCCOc5cccc6c5C(=O)N(C5CCC(=O)NC5=O)C6=O)CC4)nc3)nc2N(C)C1=O` (stereo not shown) [DB0662], for which the “logFC GAK” value was −0.4373 in test [3] (GAK (O14976), direction down, experiment wp168) and −0.4373 in test [3] (setting [10]). In addition, the “logFC CDK4 (P11802)” value in test [1] (experiment wp168) was −0.9883. Moreover, in test [5] (Experiment wp168), the “logFC of FER (P16591-1)” value is given as −1.481. Further, in test [5] (experiment wp168), the “logFC of FER” value is on record as −1.481. In addition, in test [6], the “logFC BLK” value is reported as −1.652. The “logFC of BLK (P51451)” value in test [6] (Experiment wp168) was −1.652.

On to `Cc1ccc(NC(=O)c2cccc(C(F)(F)F)c2)cc1N1Cc2cnc(Nc3ccc(N4CCN(CCCCCCOc5cccc6c5C(=O)N(C5CCC(=O)NC5=O)C6=O)CC4)nc3)nc2N(C)C1=O` (stereo not shown) [DB0663], for which the “logFC of GAK (O14976)” value in test [3] (Experiment wp045, down) is recorded as −0.691. Moreover, the “logFC GAK” value in test [3] (GAK (O14976), direction down, experiment wp045) is −0.691. Moreover, the “logFC CDK4 (P11802)” value in test [1] (experiment wp045) is reported as −0.6823. For the same compound, in test [5] (Experiment wp045), the “logFC of FER (P16591-1)” value is recorded as −0.9581. Besides, in test [5] (experiment wp045), the “logFC of FER” value was −0.9581. Besides, the “logFC of BLK” value in test [6] (BLK P51451, experiment wp045) was −1.058. Moreover, the “logFC of BLK (P51451)” value in test [6] (Experiment wp045) is −1.058.

Take `Cc1ccc(NC(=O)c2cccc(C(F)(F)F)c2)cc1N1Cc2cnc(Nc3ccc(N4CCN(CCCCC(=O)N[C@H](C(=O)N5C[C@H](O)C[C@H]5C(=O)N[C@@H](C)c5ccc(-c6scnc6C)cc5)C(C)(C)C)CC4)nc3)nc2N(C)C1=O` [DB1113]: the “logFC GAK” value in test [3] (setting [10]) is given as −1.029; in test [3] (GAK, accession O14976, experiment wp168, direction of change down), −1.029. Also, in test [1] (experiment wp168), the “logFC CDK4 (P11802)” value was −0.4373. In addition, the “logFC of FER (P16591-1)” value in test [5] (Experiment wp168) is given as −1.118. For the same compound, the “logFC of FER” value in test [5] (experiment wp168) is reported as −1.118. Moreover, in test [6], the “logFC BLK” value is −1.32. Besides, the “logFC of BLK (P51451)” value in test [6] (Experiment wp168) is recorded as −1.32.

With `CC(C)(C)c1nc(-c2cccc(NS(=O)(=O)c3c(F)cccc3F)c2F)c(-c2ccnc(NCCOCCNC(=O)CCOCCOCCNc3cccc4c3C(=O)N(C3CCC(=O)NC3=O)C4=O)n2)s1` (stereo not shown) [DD.03.106], the “logFC CDK4 (P11802)” value in test [1] (experiment wp047) is given as −0.9277; in test [1] (experiment wp137) it was −0.8885; in test [1] (experiment wp147, 1 uM), −0.6961; in test [1] (experiment wp147, 2 uM), −0.9835; in test [1] (experiment wp147, 4 uM), −0.726.

Turning to `C[C@@H]1C[C@@H](O)c2ncnc(N3CCN(C(=O)[C@H](CNCCCCCCCCCCc4cccc5c4C(=O)N(C4CCC(=O)NC4=O)C5=O)c4ccc(Cl)cc4)CC3)c21` (stereo partly shown) [INY.03.041.01], the “logFC CDK4 (P11802)” value in test [1] (experiment wp118) is −0.4019.

With `Cc1cnc(Nc2ccc(N3CCN(CCCCCCC(=O)N[C@H](C(=O)N4C[C@H](O)C[C@H]4C(=O)N[C@@H](C)c4ccc(-c5scnc5C)cc4)C(C)(C)C)CC3)cc2)nc1Nc1cccc(S(=O)(=O)NC(C)(C)C)c1` [JWG.123], the “logFC GAK” value in test [3] (setting [7]) and in test [3] (setting [8]) was −0.5246 in each case. In test [2] (experiment wp195), the “logFC of WEE1” value is recorded as −1.368. Moreover, the “logFC of WEE1 (P30291-1)” value in test [2] (experiment wp195, direction of change down) was −1.368. The “logFC AAK1” value in test [4] (AAK1 (Q2M218-1), down) is −1.091; in test [4] (setting [9]), −1.091.

Regarding `CCc1cnn2c(N(Cc3ccc(N)nc3)C(=O)CCOCCOCCOCCNC(=O)CNc3cccc4c3C(=O)N(C3CCC(=O)NC3=O)C4=O)cc(N3CCCC[C@H]3CCO)nc12` (stereo partly shown) [MFH.5.115.2], in test [1] (experiment wp076), the “logFC CDK4 (P11802)” value is given as −0.7246. The “logFC of WEE1” value in test [2] (setting [11]) is listed as −0.7664. Further, in test [2] (experiment wp076), the “logFC WEE1 (P30291-1)” value is on record as −0.7664.

As for `O=C1CCC(N2C(=O)c3cccc(NCCCCCCCCN4CCC(NC(=O)c5[nH]ncc5NC(=O)c5c(Cl)cccc5Cl)CC4)c3C2=O)C(=O)N1` (stereo not shown) [MFH.5.126.1], the “logFC CDK4 (P11802)” value in test [1] (experiment wp076) is reported as −0.608. In addition, the “logFC of WEE1” value in test [2] (setting [11]) was −0.9048. Further, the “logFC WEE1 (P30291-1)” value in test [2] (experiment wp076) is −0.9048.
